Experimental findings from patent US8355877B2, “System for predicting responsiveness to a pharmaceutical therapy for obesity” (priority 2007, dated 2013) are described below.

Test [1] relates to DIO-LE rats maintained on a high fat chow. Nature of the test: Cross therapeutic target rat study: reduction of TRL V6 concentration (NMR LipoProfile) after an acute dose. In kind it is in vivo. As for the experimental part:
(§1) As a typical example, whole blood samples are collected into 2 ml EDTA blood collection tubes, inverted several times to mix well, and placed on ice. The samples are then centrifuged at approximately 3000 rpm for 10-15 minutes at 4° C. Upon completion of centrifugation, the tube is placed on ice and the plasma is drawn off. The plasma is place into a polypropylene tube and kept at 4° C. until analysis. Samples may be analyzed at any time up to about 4 days after collection. Samples are analyzed for TRL V6 response, as for example by NMR plasma lipoprotein analysis, as for example, the NMR LipoProfile®, the NMR LipoProfile®-II or the NMR LipoProfile®-III lipoprotein tests provided by LipoScience, Inc. of Raleigh, N.C.
(§2) NMR spectral data is analyzed as described in Jeyarajah et al., supra. Lipoprotein subclass concentrations are reported in lipid mass concentration units (TRL subclasses in units of mg/dL triglyceride) or, alternatively, in particle concentration units of nmol/L (nanomoles of particles per liter). The source information (NMR signal amplitude of each subclass) is transformed into these mass or particle concentration units by the analysis software, using a set of conversion factors obtained from chemical lipid and NMR analyses of isolated chylomicron, VLDL, LDL, and HDL subclass standards of normal lipid composition.
The ability of investigational weight loss pharmaceutical agents to reduce the TRL V6 concentration in rats is shown with three compounds targeting different mechanisms of action including a known potent and selective 5-HT2C receptor agonist, a known potent and selective CB-1 receptor antagonist/inverse agonist, and a potent SNDRI (sibutramine). Each of these compounds are known to induce weight loss in rats and thus the biomarker of reduction in TRL V6 concentration correlates to the investigational weight loss pharmaceutical agents' ability to induce weight loss. Conversely, an opiate antagonist, (naltrexone) which is known to be ineffective in inducing weight loss in rats or in overweight and obese human subjects (Malcolm R et al., Int. J. Obes. 1985; 9(5):347-53), is shown to not reduce the TRL V6 concentration in rats, again correlating the biomarker of reduction in TRL V6 concentration to the investigational weight loss pharmaceutical agents' ability to induce weight loss.
DIO-LE rats maintained on a high fat chow are administered either a vehicle dose or an acute dose of test compound. At specified time points post dose, animals are sacrificed and blood is collected in blood sample tubes containing EDTA and processed essentially as described above. Samples are analyzed by NMR LipoProfile® lipoprotein sub-particle test with report of all particle subtypes (specifically the TRL V6 concentration or particle number).

Test [2] deals with hypertriglyceridemic and overweight and obese but otherwise healthy subjects. Nature of the test: Human study with a SNDRI (sibutramine): TRL response to fat load, single-blind crossover vs placebo, NMR LipoProfile III. In kind it is in vivo. As for the experimental part:
Note that where TRL V6 response can be equated with the response of a combination of subtypes, it is because the magnitude of the change in signal, which is due to the change of TRL V6 signal, is sufficiently large compared to the base line signal, to be a significant difference (i.e. the signal from TRL V6 in the base line signal dominates the combined signal so that a change in TRL V6 is reliably detected).
as §1, §2
A SNDRI (sibutramine) known to be able to induce weight loss in humans is tested to correlate its ability to reduce TRL V6 response plasma concentrations and V-TRL response in humans in an exploratory biomarker study employing a single-blind, crossover design, comparing sibutramine and placebo in hypertriglyceridemic and overweight and obese but otherwise healthy subjects.
Three cohorts containing 6 subjects each, undergo three periods during the study. Subjects are fasted overnight and two fasting blood draws are obtained, followed by breakfast at approximately 07:00 hours. Placebo or sibutramine is administered at approximately 10:00 hours. Blood sampling is begun approximately 1 hr. after the start of breakfast and continues at hourly intervals for 7 hr., and then every 2 hr. for the next 10 hr. A lunch according to Example fat load 2 is served at approximately 12:00 hours (approximately 60 to 65 g of fat). No other food is permitted until 12 hr. post fat load administration. Subjects are released after the last blood sampling for a 4 to 8-day washout period before return for the second testing period of the study. After the washout period, subjects are again fasted overnight. The procedures are then repeated as in the first testing period of the study except that each subject crosses over to receive the alternate treatment, sibutramine or placebo. Blood samples are collected, processed and analyzed essentially as described in Example 1 above.
TRL V6 responses and V-TRL responses are observed during the period from 5 to 11 hr. post fat load. […] In most subjects, the administration of sibutramine reduced the magnitude of the TRL V6 response and V-TRL response compared to their placebo-treated responses. Thus the reduction of the TRL V6 response and V-TRL response induced by the SNDRI correlates with the SNDRI known ability to induce weight loss in humans.

[3] abbreviates: rats, 5-HT2C agonist 10 mg/kg, CB-1 antagonist 0.3 mg/kg, SNDRI 3 mg/kg, naltrexone 10 mg/kg oral.
Where [4] appears, read: AUC 5-11 hr. post fat load vs placebo, humans.
The mark [5] stands for this setting: AUC from lipid load vs placebo, Table 2.
[6] abbreviates: 5 hr. post dose, CB-1 antagonist 0.3 mg/kg, SNDRI 3 mg/kg, rats.

Regarding `O=C1CC[C@@]2(O)[C@H]3Cc4ccc(O)c5c4[C@@]2(CCN3CC2CC2)[C@H]1O5` [Naltrexone, naltrexone], the “TRL V6 level versus baseline at 18 hr. post dose” value in test [1] (10 mg/kg oral, 18 hr. post dose, rats) is “unchanged”. For the same molecule, in test [1] (10 mg/kg orally administrated dose, rats), the “effect on circulating TRL V6 levels” value was “minimal effect”. Also, the “time post dose at which TRL V6 plasma concentration returns to baseline” value in test [1] (setting [3]) was determined as 5 h.
Regarding `CC(C)CC(N(C)C)C1(c2ccc(Cl)cc2)CCC1` (stereo not drawn) [Sibutramine, sibutramine], in test [2] (setting [4]), the “change in mean V-TRL response” value is reported as “statistically significant decrease” and the “change in the plasma concentrations of TRL V1, V2, V3, V4, or V5 subtypes” value was “does not show a significant change”. Also, the “decrease in the TRL V6 response (AUC) vs placebo” value in test [2] (AUC 5-11 hr. post fat load, mixed effects model, statistically significant, humans) is recorded as “about 28%”. In addition, in test [2] (setting [5]), the “change in TRL V6+TRL V5” value is recorded as “did not produce a significant change”, the “change in TRL V6+TRL V5+chylomicrons” value is given as “did not produce a significant change”, the “change in TRL V6+chylomicrons” value is “showed a significant change” and the “effect on TRL V6 response” value was “reduced the TRL V6 response”. In test [2] (TRL V5, AUC 5-11 hr. from lipid load, P 0.474), the “Sibutramine/Placebo Ratio of AUC, TRL V5” value is recorded as 1.10. Moreover, the “Geometric LS Mean of AUC, TRL V5” value in test [2] (TRL V5, AUC 5-11 hr. time points from lipid load, human plasma, NMR) amounted to 222.34. Also, the “Sibutramine/Placebo Ratio of AUC, TRL V6 + Chy” value in test [2] (TRL V6 + Chy, AUC 5-11 hr. from lipid load, P 0.004) is on record as 0.81. Moreover, in test [2] (TRL V6 + Chy, AUC 5-11 hr. time points from lipid load, human plasma, NMR), the “Geometric LS Mean of AUC, TRL V6 + Chy” value is reported as 205.0. In test [2] (TRL V6 + TRL V5, AUC 5-11 hr. from lipid load, P 0.091), the “Sibutramine/Placebo Ratio of AUC, TRL V6 + TRL V5” value is recorded as 0.88. Further, the “Geometric LS Mean of AUC, TRL V6 + TRL V5” value in test [2] (TRL V6 + TRL V5, AUC 5-11 hr. time points from lipid load, human plasma, NMR) is 364.08. Also, in test [2] (TRL V6 + V5 + Chy, AUC 5-11 hr. from lipid load, P 0.110), the “Sibutramine/Placebo Ratio of AUC, TRL V6 + V5 + Chy” value is on record as 0.89. In addition, the “Geometric LS Mean of AUC, TRL V6 + V5 + Chy” value in test [2] (TRL V6 + V5 + Chy, AUC 5-11 hr. time points from lipid load, human plasma, NMR) was 458.04. Further, the “Sibutramine/Placebo Ratio of AUC, TRL V6” value in test [2] (TRL V6, AUC 5-11 hr. from lipid load, P 0.001) worked out at 0.73. Besides, the “Geometric LS Mean of AUC, TRL V6” value in test [2] (TRL V6, AUC 5-11 hr. time points from lipid load, human plasma, NMR) worked out at 119.35. Also, in test [2] (chylomicrons, AUC 5-11 hr. from lipid load, P 0.721), the “Sibutramine/Placebo Ratio of AUC, Chy” value was 0.98. In addition, the “Geometric LS Mean of AUC, Chy” value in test [2] (chylomicrons, AUC 5-11 hr. time points from lipid load, human plasma, NMR) worked out at 81.11. Moreover, the “reduction of TRL V6 concentration” value in test [1] (2 hr. post dose, 3 mg/kg, rats) is given as “about 78%”. Also, in test [1] (2 hr. post dose, 5-HT2C agonist 10 mg/kg, SNDRI 3 mg/kg, naltrexone 10 mg/kg oral, rats), the “reduction of circulating concentration of TRL V6” value is listed as “about 78%”. Further, in test [1] (setting [6]), the “reduction of TRL V6 concentration” value is on record as “about 78%” and the “reduction of circulating concentration of TRL V6” value is “about 78%”. Further, the “Reduction in TRL V6 Response, T1-(ie 2 hrs)” value in test [1] (T1 (ie 2 hrs) post dose, dose per compound in column Dose (10, 0.3, 3, 10 mg/kg), DIO-LE rats) came out at 78%. Moreover, the “Reduction in TRL V6 Response, T2-(ie 5 hrs)” value in test [1] (T2 (ie 5 hrs) post dose, dose per compound in column Dose, DIO-LE rats) is on record as 78%. Moreover, the “Reduction in TRL V6 Response, T3-(ie 18 hrs)” value in test [1] (T3 (ie 18 hrs) post dose, dose per compound in column Dose, DIO-LE rats) was determined as 0%. In test [1] (setting [3]), the “time post dose at which TRL V6 plasma concentration returns to baseline” value is no more than 18 h.
